Several values for one entry are separate records, joined by “and”; a condition that tells them apart may be missing. Equal entries are not always repeated. Entries after “also recorded” stand apart in the source; their conditions may differ. Where two headings read alike, the source gives them in different places.
Key:
SA11 VP6 = SA11 VP6 (Rotavirus A, UniProt P03531); design: species or system simian rotavirus SA11; conditions: in vivo
murine rotavirus ECwt = conditions: mouse, in vivo
simian rotavirus SA11 = conditions: mouse, in vivo
full-length NSP4 = tested on: full-length NSP4; design: species or system simian rotavirus SA11; conditions: in vivo, sc
CD1 mice = conditions: mouse, in vivo
mice [1] = conditions: mouse, in vivo
[2] = tested on: infectious SA11 rotavirus; conditions: mouse, in vivo
CD1 mice ileal mucosa = format: cell-based, mouse
19 day old pups = conditions: mouse, in vivo
[3] = in vivo
CFTR knock-out mice = conditions: mouse, in vivo
Balb/C mice = conditions: mouse, in vivo, ip
insect cells = conditions: cited from earlier work
mice [4] = conditions: mouse, in vivo; cited from earlier work

Chain of SA11 VP6 (P03531 whole entry, looked up): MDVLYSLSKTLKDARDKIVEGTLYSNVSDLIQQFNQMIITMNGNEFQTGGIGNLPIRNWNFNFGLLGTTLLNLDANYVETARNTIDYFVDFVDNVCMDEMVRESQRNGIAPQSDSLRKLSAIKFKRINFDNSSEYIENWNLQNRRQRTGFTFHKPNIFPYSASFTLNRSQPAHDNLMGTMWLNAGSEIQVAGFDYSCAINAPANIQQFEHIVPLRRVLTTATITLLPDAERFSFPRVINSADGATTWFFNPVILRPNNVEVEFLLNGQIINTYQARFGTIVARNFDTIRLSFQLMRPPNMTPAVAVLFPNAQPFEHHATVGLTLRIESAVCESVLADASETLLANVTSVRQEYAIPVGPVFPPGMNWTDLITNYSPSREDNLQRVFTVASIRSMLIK

For QS-21, the “serum antibody titers to VP6 in dams (GMT)” value (SA11 VP6) was 2×10^3, the Mean diarrhea score (murine rotavirus ECwt) was 3.3 and the “Pups with diarrhea % at indicated DPI: 0-8” value (murine rotavirus ECwt) was 100%. For the same molecule, the “Pups with diarrhea % at indicated DPI: 2” value (murine rotavirus ECwt) was 29%, the “Pups with diarrhea % at indicated DPI: 3” value (murine rotavirus ECwt) was 100% and the “Pups with diarrhea % at indicated DPI: 4” value (murine rotavirus ECwt) was 100%. For the same molecule, the “Pups with diarrhea % at indicated DPI: 5” value (murine rotavirus ECwt) was 100%, the “Pups with diarrhea % at indicated DPI: 6” value (murine rotavirus ECwt) was 86% and the “Pups with diarrhea % at indicated DPI: 7” value (murine rotavirus ECwt) was 71%. For the same molecule, the “Pups with diarrhea % at indicated DPI: 8” value (murine rotavirus ECwt) was 14%, the “Pups with diarrhea/total at DPI 0-8” value (murine rotavirus ECwt) was “(7/7)” and the “Pups with diarrhea/total at DPI 2” value (murine rotavirus ECwt) was “(2/7)”. For the same molecule, the “Pups with diarrhea/total at DPI 3” value (murine rotavirus ECwt) was “(7/7)”, the “Pups with diarrhea/total at DPI 4” value (murine rotavirus ECwt) was “(7/7)” and the “Pups with diarrhea/total at DPI 5” value (murine rotavirus ECwt) was “(7/7)”. For the same molecule, the “Pups with diarrhea/total at DPI 6” value (murine rotavirus ECwt) was “(6/7)”, the “Pups with diarrhea/total at DPI 7” value (murine rotavirus ECwt) was “(5/7)” and the “Pups with diarrhea/total at DPI 8” value (murine rotavirus ECwt) was “(1/7)”. For the same molecule, the Mean diarrhea score (simian rotavirus SA11) was 3.5 and 3.3, the “Pups with diarrhea % at indicated DPI: 3” value (simian rotavirus SA11) was 100% and the “Pups with diarrhea % at indicated DPI: 4” value (simian rotavirus SA11) was 56%. For the same molecule, the “Pups with diarrhea/total at DPI 2” value (simian rotavirus SA11) was “(8/12); also recorded: (3/9)”, the “Pups with diarrhea/total at DPI 3” value (simian rotavirus SA11) was “(12/12); also recorded: (9/9)” and the “Pups with diarrhea/total at DPI 4” value (simian rotavirus SA11) was “(4/12); also recorded: (5/9)”. For the same molecule, the “Pups with diarrhea/total at DPI 7” value (simian rotavirus SA11) was “(12/12); also recorded: (9/9)”, the duration of diarrhea (simian rotavirus SA11) was “at least two days” and the “Pups with diarrhea % at indicated DPI: 2” value (simian rotavirus SA11; po) was 76%. For the same molecule, the “Pups with diarrhea % at indicated DPI: 3” value (simian rotavirus SA11; po) was 100%, the “Pups with diarrhea % at indicated DPI: 4” value (simian rotavirus SA11; po) was 33% and the “serum antibody geometric mean titers (GMT) to NSP4 full-length in dams” value (full-length NSP4) was “lacked antibody”.

For “TKDEIEKQMDRVVKEMRRQLEMIDKLTTREIEQ [NSP4 90-123]”, the “# responders/total # tested” value (CD1 mice; ip) was 2/10 and the “% Diarrhea” value (CD1 mice; ip) was 20%.

In the case of “EIEQVELLKRIYDKLTVQTTGEIDMTKE [NSP4 120-147]”, the “% animals with diarrhea” value (mice [1]) is reported as 88%, the animals with diarrhea (mice [1]) is reported as 7 out of 8 and the “animals with severe diarrhea” value (mice [1]) is reported as 5 of 5.

In the case of DTGRNLGEFKAYPDGFLTCV [NV 464-483], the “# responders/total # tested” value (CD1 mice; ip) is reported as 0/10, the “% Diarrhea” value (CD1 mice; ip) is reported as 0% and the “symptoms with control peptides” value (CD1 mice; ip) is reported as “No symptoms”.

For EKLTDLNYTLSVITLMNNTLH [NSP4 2-22], the “% pups with diarrhea, 2 days” value [2] was 63%, the “% pups with diarrhea, 3 days” value [2] was 25% and the “% pups with diarrhea, Total” value [2] was 100%. The “pups with diarrhea/total pups, 2 days” value [2] was “(10/16)”, the “pups with diarrhea/total pups, 3 days” value [2] was “(4/16)” and the “pups with diarrhea/total pups, Total” value [2] was “(16/16)”. For the same molecule, the “# responders/total # tested” value (CD1 mice; ip) was 0/11, the “% Diarrhea” value (CD1 mice; ip) was 0% and the “symptoms with control peptides” value (CD1 mice; ip) was “No symptoms”.

For `C=C[C@@]1(C)CC(=O)[C@]2(O)[C@@]3(C)[C@@H](O)CCC(C)(C)[C@@H]3[C@H](O)[C@H](OC(C)=O)[C@@]2(C)O1` [Forskolin (FSK), forskolin], the “▴ISC” value (CD1 mice ileal mucosa) was 44 ± 0.7 μA/cm^2 and 41 ± 7 μA/cm^2.

With DKLTTREIEQVELLKRIYDKLT [NSP4 114-135] the diarrhea (19 day old pups) was “no diarrhea was seen”, the intestinal fluid accumulation (19 day old pups) was “significant fluid accumulation” and the “increase in mucosal Isc after FSK pretreatment” value (CD1 mice ileal mucosa) was 64 μA/cm2. For the same molecule, the “weight lower than normal animals” value [3] was 20-30%, the “% of animals with diarrhea” value (CFTR knock-out mice) was 80% and the “% Diarrhea” value (Balb/C mice) was 100% and 80%. For the same molecule, the “% pups with diarrhea, 2 days” value [2] was 17%, the “% pups with diarrhea, 3 days” value [2] was 0% and the “% pups with diarrhea, Total” value [2] was 42%. The “pups with diarrhea/total pups, 2 days” value [2] was “(2/12)”, the “pups with diarrhea/total pups, 3 days” value [2] was “(0/12)” and the “pups with diarrhea/total pups, Total” value [2] was “(5/12)”. For the same molecule, the “time frame of diarrhea induction” value (CD1 mice) was “about 3 hrs”, the “# responders/total # tested” value (CD1 mice; ip) was 8/12 and the “% Diarrhea” value (CD1 mice; ip) was 67%. The “DD50 (50% diarrheal dose)” value (CD1 mice; ip) was 79 nmol, the “diarrhea typically continued for” value (CD1 mice; ip) was “up to 8 hr” and the “intracellular calcium in insect cells” value (insect cells) was “mobilize intracellular calcium levels”.

For `C[N+](C)(C)CCOC(N)=O` [Carbachol (Cch), carbachol], the “Isc with FSK (potentiated effect of FSK)” value (CD1 mice ileal mucosa) was 64 μA/cm^2, the “increase in mucosal Isc after FSK pretreatment” value (CD1 mice ileal mucosa) was 63 μA/cm2 and the “▴ISC” value (CD1 mice ileal mucosa) was 9 ± 2 μA/cm^2 and 14 ± 4 μA/cm^2.

In the case of “MIDKLTTREI EQVELL KRIYDKLTVQTTGEIDMTKEINQKNVRTLEEWESGKNPYEPKEVTAAM [NSP4 112-175]”, the enterotoxin activity (mice [4]) is listed as “has enterotoxin activity in mice”.

Source: patent US6673355B1 (priority 1995, dated 2004)
